Each structure is given as a SMILES string. Active and inactive are the calls of the source. For most assays here, no stated cut-off is given here; in the data, actives have a measured EC50 and inactives only a lower limit.

Test system in one test: not listed separately
The test can be described thus: cells. Type of test: functional, cell-based.
Turning to `Cc1ccccc1-n1c(=O)n(Cc2ccc(C(=O)O)cc2)c(=O)c2[nH]cnc21`, the EC50 is > 350 µM (not active).
On the same count and under the same terms, the figure for `COc1nccc(C(F)(F)F)c1C(=O)NC(=O)Nc1ccccc1` is > 350 µM (not active); for `Cc1nnc(SCc2cccc(Cl)c2)n(N)c1=O` it is > 350 µM (not active); for `CC(C)c1ccc2oc(=O)cc(CN3CCOCC3)c2c1` it is > 350 µM (not active).
On to `CC(=O)N1c2ccc(S(=O)(=O)NCCc3ccccc3)cc2CC1C` (centres undefined), for which the EC50 was > 350 µM (not active).
For the compound `Cc1cc(NC(=O)c2ccccc2)n(-c2nc3ccccc3[nH]2)n1`, the EC50 is given as > 350 µM (not active).
Same read-out and setting: the figure for `COc1ccccc1CCNS(=O)(=O)c1cc2c3c(c1)C(C)C(=O)N3CCC2` (centres undefined) is > 350 µM (not active).
Same read-out and setting: with `Cc1ccc(Nc2nc(CSc3nnc(-c4ccncc4)n3C)cs2)cc1` the figure was > 350 µM (not active); with `CCNc1nc(Cl)nc(NNC(=O)C(C)Oc2ccccc2)n1` (centres undefined), > 350 µM (not active); with `Cc1cccc(C(=O)O/N=C(\N)c2ccc(Cl)cc2)c1`, > 350 µM (not active).

Test system in the next test: not listed separately
The test can be described thus: alpha-synuclein stem-loop luciferase translation blockers – H4 neuroglioma cells, luminescence, confirmation (AID 1988). In kind it is functional, cell-based.
Regarding `Cc1cccc(C)c1OCC(O)CN(Cc1ccccc1O)C1CCCCC1` (centres undefined), the EC50 is listed as > 120 µM (not active).

Test system in the next test: not listed separately
The test is described as follows: cells. In kind it is functional, cell-based. This is another data set of the same source.
Take `Cc1ccccc1-n1c(=O)n(Cc2ccc(C(=O)O)cc2)c(=O)c2[nH]cnc21`: the EC50 is > 350 µM (not active).
The same measure, in the same setting: with `COc1nccc(C(F)(F)F)c1C(=O)NC(=O)Nc1ccccc1` the figure was > 350 µM (not active); with `Cc1nnc(SCc2cccc(Cl)c2)n(N)c1=O`, > 350 µM (not active); with `CC(C)c1ccc2oc(=O)cc(CN3CCOCC3)c2c1`, > 350 µM (not active).
The same measure, in the same setting: the figure for `CC(=O)N1c2ccc(S(=O)(=O)NCCc3ccccc3)cc2CC1C` (centres undefined) is > 350 µM (not active).
Same read-out and setting: the figure for `Cc1cc(NC(=O)c2ccccc2)n(-c2nc3ccccc3[nH]2)n1` is 63.9 µM (active); for `COc1ccccc1CCNS(=O)(=O)c1cc2c3c(c1)C(C)C(=O)N3CCC2` (centres undefined) it is > 350 µM (not active).
Regarding `Cc1ccc(Nc2nc(CSc3nnc(-c4ccncc4)n3C)cs2)cc1`, the EC50 is on record as > 350 µM (not active).
On the same count and under the same terms, the figure for `CCNc1nc(Cl)nc(NNC(=O)C(C)Oc2ccccc2)n1` (centres undefined) is 47 µM (active); for `Cc1cccc(C(=O)O/N=C(\N)c2ccc(Cl)cc2)c1` it is 16.7 µM (active).

Another test deals with T1, Protein skinhead-1 (Caenorhabditis elegans, UniProt P34707).
T1 sequence (P34707 whole entry): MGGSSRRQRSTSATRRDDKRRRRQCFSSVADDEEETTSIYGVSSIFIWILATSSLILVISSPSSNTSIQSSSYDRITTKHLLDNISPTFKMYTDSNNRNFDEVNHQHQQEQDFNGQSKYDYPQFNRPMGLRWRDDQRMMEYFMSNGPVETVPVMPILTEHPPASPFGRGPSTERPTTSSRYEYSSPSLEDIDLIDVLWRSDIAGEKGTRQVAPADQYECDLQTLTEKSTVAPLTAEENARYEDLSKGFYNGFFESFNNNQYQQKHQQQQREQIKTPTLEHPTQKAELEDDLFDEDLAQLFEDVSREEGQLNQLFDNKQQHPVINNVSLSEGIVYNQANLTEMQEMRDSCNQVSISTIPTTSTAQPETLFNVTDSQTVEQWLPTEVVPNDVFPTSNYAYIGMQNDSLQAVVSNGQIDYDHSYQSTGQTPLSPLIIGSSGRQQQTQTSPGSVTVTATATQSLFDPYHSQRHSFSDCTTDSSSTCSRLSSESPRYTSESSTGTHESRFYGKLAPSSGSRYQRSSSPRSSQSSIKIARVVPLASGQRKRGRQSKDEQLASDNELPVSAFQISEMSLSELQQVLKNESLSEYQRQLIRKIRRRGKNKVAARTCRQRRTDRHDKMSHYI
Test: not given
Type of test: functional.
For the compound `Cc1cccc(C)c1OCC(O)CN(Cc1ccccc1O)C1CCCCC1` (centres undefined), the IC50 was > 100 µM (inactive).

Test system in another test: not listed separately
The test is described as follows: Luminescence Cell-Based Dose Response HTS to Identify Inhibitors of 5'UTR Stem-Loop Driven Prion Protein mRNA Translation in H4 Neuroglioblastoma Cells. [Related pubchem assays: 1827 (Project Summary), 1813 (Primary HTS)]. Type of test: functional.
Take `Cc1cccc(C)c1OCC(O)CN(Cc1ccccc1O)C1CCCCC1` (centres undefined): the EC50 is recorded as > 120 µM (not active).

Test system in another test: not listed separately
The test can be described thus: luciferase reporter signal suppression in cells – H4 neuroglioma cells, luminescence, dose response (AID 1990). Type of test: functional, cell-based.
On to `Cc1cccc(C)c1OCC(O)CN(Cc1ccccc1O)C1CCCCC1` (centres undefined), for which the EC50 is on record as > 120 µM (not active).
